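Dose response: 5 concentrations. Exposure: 48 h. Format: 96-well plates. Endpoint: linear interpolation; highest concentration if not reached. Here, GI50 denotes the concentration required for 50% inhibition of growth. TGI denotes the concentration required for complete inhibition of growth.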

The record followed here is PubChem BioAssay (NCI).

Common to all, as to test: NCI-60 cell line screen, 48 h
Assay [1] relates to 786-0 renal.
The subject of assay [2] is SK-MEL-2 melanoma.
Assay [3] concerns A549 NSCLC.
The subject of assay [4] is SK-MEL-5 melanoma.
Assay [5] relates to U251 CNS.
In assay [6] the test system is UACC-62 melanoma.
The subject of assay [7] is HCC-2998 colon.
The subject of assay [8] is T-47D breast.
The subject of assay [9] is SF-268 CNS.
The subject of assay [10] is K-562 leukemia.

Turning to `NC(=O)c1c(NC(=O)c2cccs2)sc2c1CCC(=O)C2`, the GI50 in assay [1] was 4.34 µM; in assay [2], 2.71 µM; in assay [3], 3.5 µM; in [4] it was 1.62 µM; in [5], 2.28 µM; in assay [6], 0.811 µM. In addition, the GI50 in assay [7] was 4.13 µM; in assay [8], 2.05 µM; in assay [9], 3.21 µM; in [10], 0.736 µM. Further, the TGI in assay [1] is more than 100 µM; in [2] it was 7.78 µM; in assay [3], more than 100 µM; in assay [4], 3.19 µM; in assay [5] it was more than 100 µM; in assay [6], 4.43 µM. Also, the TGI in assay [7] is 48.9 µM; in assay [8], more than 100 µM; in [9], more than 100 µM; in [10], more than 100 µM.

Take `C=CCn1c2ccccc2c2c3c(c4c5ccccc5n(CC=C)c4c21)C(=O)N(O)C3=O`: the GI50 is 2.66 µM in assay [1]; 13 µM in assay [2]; 4.47 µM in assay [3]; 1.79 µM in assay [4]; 2.79 µM in [5]; 1.74 µM in [6]. For the same molecule, the GI50 in assay [7] was 4.94 µM; in assay [8], 2.03 µM; in assay [9] it was 3.72 µM; in assay [10] it was 3.89 µM. Further, the TGI is 40.4 µM in assay [1]; 46.1 µM in [2]; 55.4 µM in [3]; 4.1 µM in [4]; 11.4 µM in [5]; 10.5 µM in assay [6]. The TGI in assay [7] amounted to 34 µM; in [8], 33.2 µM; in assay [9], 32.4 µM; in [10], 50 µM.

On to `Cn1ncc(C#N)c1-c1ccc2c(c1)CN([C@H](CN)Cc1cccc(F)c1)C2=O`, for which the GI50 was 0.145 µM in assay [1]; 16.6 µM in assay [2]; 5.34 µM in assay [3]; 12.1 µM in [4]; 0.693 µM in assay [5]; 3.17 µM in [6]. Also, the GI50 is 5.96 µM in [7], 0.0519 µM in assay [8], 20.1 µM in assay [9] and 27.4 µM in assay [10]. In addition, the TGI is 14.6 µM in [1]; 44.8 µM in assay [2]; more than 100 µM in assay [3]; 24.9 µM in assay [4]; more than 86.4 µM in assay [5]; 22.6 µM in [6]. Further, the TGI in assay [7] is more than 100 µM; in [8], 6.74 µM; in [9] it was more than 100 µM; in assay [10] it was more than 100 µM.

As to `Nc1[nH]nc2nc(-c3cc(Cl)ccc3Cl)cc(-c3ccc(F)cc3)c12`, the GI50 in [1] is 23.7 µM; in [2], 21.2 µM; in [3], 22.9 µM; in [4] it was 16.6 µM; in [5], 21.6 µM; in assay [6], 16 µM. Moreover, the GI50 is 19.1 µM in assay [7], 20.2 µM in assay [8], 18.2 µM in assay [9] and 43.9 µM in assay [10]. Also, the TGI in assay [1] is 59.2 µM; in assay [2], 43.2 µM; in assay [3] it was 87.3 µM; in [4] it was 34.1 µM; in [5], 44.8 µM; in assay [6], 32.4 µM. The TGI in assay [7] is 36.1 µM; in assay [8] it was more than 100 µM; in assay [9], 43.6 µM; in [10] it was more than 100 µM.

Turning to `Cc1nc2sc(C(=O)Nc3cccc(Br)c3C)c(N)c2cc1C(O)c1ccccc1` (stereo not given), the GI50 in assay [1] was 0.0601 µM; in [2], 0.249 µM; in [3], 0.0466 µM; in assay [4] it was 0.0468 µM; in assay [5], 0.0438 µM; in assay [6], 0.0566 µM. For the same molecule, the GI50 was 0.0351 µM in assay [7], 0.0554 µM in assay [8], 0.146 µM in assay [9] and 0.0354 µM in assay [10]. The TGI was 10.1 µM in assay [1]; 15.7 µM in [2]; more than 100 µM in assay [3]; 0.263 µM in assay [4]; 14.6 µM in assay [5]; 9.59 µM in assay [6]. For the same molecule, the TGI in [7] is 2.12 µM; in assay [8], 67.7 µM; in assay [9] it was 13 µM; in assay [10], more than 100 µM.

Consider `COC(=O)[C@]12CC[C@@H](C)[C@H](C)[C@@H]1C1=CC[C@@H]3[C@@]4(C)C(C=O)=C[C@@](C)(CO)[C@@H]4[C@H](O)C[C@@]3(C)[C@]1(C)CC2`, for which the GI50 was 2.97 µM in assay [1]; 7.26 µM in [2]; 4.15 µM in assay [3]; 5.8 µM in assay [4]; 3.83 µM in assay [5]; 3.71 µM in assay [6]. Also, the GI50 in assay [7] was 3.13 µM; in [8], 2.11 µM; in [9] it was 5.16 µM; in [10], 3.86 µM. Moreover, the TGI in assay [1] worked out at 11.1 µM; in assay [2], 22.5 µM; in [3] it was 14.6 µM; in [4], 18.4 µM; in assay [5] it was 13.8 µM; in [6], 14.8 µM. The TGI in assay [7] came out at 9.45 µM; in assay [8], 13.2 µM; in assay [9], 20.4 µM; in assay [10], 15.5 µM.

As to `Cc1ccc(N(C=O)c2c([N+](=O)[O-])cc([N+](=O)[O-])c3c2=[N+]([O-])CN=3)cc1`, the TGI was 67.6 µM in [1]; 42.2 µM in [2]; more than 100 µM in assay [3]; 30.1 µM in assay [4]; 79.9 µM in assay [5]; 29.8 µM in assay [6]. Besides, the TGI is 43.3 µM in assay [7], 39.7 µM in [8], more than 100 µM in [9] and 82.7 µM in assay [10].
